Measurements reported in publication PMC5426080, “Catalytic Intermediate Crystal Structures of Cysteine Desulfurase from the Archaeon Thermococcus onnurineus NA1” (Archaea, 2017).
Values belong to the compound of their own block, whether it stands above or below them.

Legend:
[1] = target: T1, ToCDS (cysteine desulfurase, CDS) (Thermococcus onnurineus, UniProt B6YT87); assay: X-ray crystallography; format: binding
T1 construct: gene TON_0289; full length, 399 residues, N-terminal 7xHis-TEV tag (cleavage not mentioned), E. coli BL21(DE3), about 44 kDa, homodimer; PLP on Lys216, catalytic Cys356; EC 2.8.1.7; primers encode N-terminus MIPEDV and C-terminus KGLKT
Source text: X-ray crystallography on ToCDS (cysteine desulfurase, CDS) | PLP was Schiff-base linked with […] at the active site. | the alanine was tightly bound: the conserved […] side chain had bifurcated hydrogen bonds

[2] = target: cysteine desulfurase from Thermococcus onnurineus NA1 (Thermococcus onnurineus NA1); assay: crystal structure; ToCDS alone (crystal I, NAT, 2.6 Å, space group P212121), a dimer in the asymmetric unit; crystals II-IV soaked or co-crystallised with 5 mM L-cysteine and 1 mM PLP, each with protomers A and B

T1 sequence (B6YT87 entry or part of it): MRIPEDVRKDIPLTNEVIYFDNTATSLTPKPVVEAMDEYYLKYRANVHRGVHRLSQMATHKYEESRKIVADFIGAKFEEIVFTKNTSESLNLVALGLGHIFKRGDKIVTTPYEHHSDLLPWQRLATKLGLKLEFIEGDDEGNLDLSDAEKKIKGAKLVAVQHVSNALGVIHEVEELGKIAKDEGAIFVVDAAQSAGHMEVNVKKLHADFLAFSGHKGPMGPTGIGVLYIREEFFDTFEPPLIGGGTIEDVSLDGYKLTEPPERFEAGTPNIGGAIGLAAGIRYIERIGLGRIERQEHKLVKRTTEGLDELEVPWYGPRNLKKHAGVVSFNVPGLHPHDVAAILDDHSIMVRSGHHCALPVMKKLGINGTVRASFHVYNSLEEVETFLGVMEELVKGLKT

Compound: C[C@H](N)C(=O)O [alanine]
X-ray crystallography ([1]; crystal III 1.5 Å (protomer A: unbonded alanine, internal aldimine; protomer B: gem-diamine) and crystal II 2.3 Å (gem-diamine, covalent to PLP), from L-cysteine and PLP by cocrystallization or soakin): the alanine was tightly bound: the conserved Arg371 side chain had bifurcated hydrogen bonds

Compound: Cc1ncc(COP(=O)(O)O)c(C=O)c1O [PLP, pyridoxal 5′-phosphate]
X-ray crystallography ([1]; covalent, internal aldimine Schiff base with Lys216, native crystal I, 2.6 Å, pH 8.5): PLP was Schiff-base linked with Lys216 at the active site.

stoichiometry N [2]: 2
Compound: cysteine desulfurase from Thermococcus onnurineus NA1 (enzyme)
